In PMC6268179, “Synthesis, Docking Studies and Biological Evaluation of Benzo[b]thiophen-2-yl-3-(4-arylpiperazin-1-yl)-propan-1-one Derivatives on 5-HT1A Serotonin Receptors” (Molecules, 2012) one finds inhibition and Ki data, which are given here for two compounds.

Broadly, the inhibition is the drop in the measured response relative to a control, in per cent. The low end stands for a response near the control, the high end for a response far below the control. By Ki is commonly meant a measure of affinity in units of concentration, obtained from inhibition or displacement.

Experiment [1] addresses T1, 5-HT1A receptor (Rattus norvegicus, UniProt P19327).
T1 construct: gene Htr1a; rat cerebral cortex membranes
T1 sequence (P19327 1-422): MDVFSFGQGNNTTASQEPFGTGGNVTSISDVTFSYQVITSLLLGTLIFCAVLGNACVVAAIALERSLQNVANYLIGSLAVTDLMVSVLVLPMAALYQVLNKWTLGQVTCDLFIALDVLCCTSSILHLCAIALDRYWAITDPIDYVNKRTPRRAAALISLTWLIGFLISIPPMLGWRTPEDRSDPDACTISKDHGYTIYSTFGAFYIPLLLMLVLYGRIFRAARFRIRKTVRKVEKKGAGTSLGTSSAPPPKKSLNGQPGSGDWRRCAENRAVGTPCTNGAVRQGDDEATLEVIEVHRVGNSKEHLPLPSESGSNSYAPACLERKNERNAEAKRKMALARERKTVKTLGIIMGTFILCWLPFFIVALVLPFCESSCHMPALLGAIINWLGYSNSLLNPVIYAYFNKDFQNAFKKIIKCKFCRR
As to the kind of experiment: radioligand displacement of [3H]-8-OH-DPAT, single dose […]. (Displacement assays read how much labelled ligand stays bound in the presence of the test substance.)

In experiment [2] the target is T1, 5-HT1A receptor. Kind of experiment: radioligand displacement of [3H]-8-OH-DPAT, dose-response. Format: binding.

Compound `COc1ccccc1N1CCN(CCC(=O)c2cc3ccccc3s2)CC1` [7d, 3-[4-(2-Methoxyphenyl)piperazin-1-yl]-1-(benzo[b]thiophen-2-yl)-1-propanone] displayed an inhibition at 1 µM in experiment [1] of 52 ± 7%. With `O=C(CCN1CCN(c2ccccn2)CC1)c1cc2ccccc2s1` [7e, 1-(benzo[b]thiophen-2-yl)-3-(4-(pyridin-2-yl)piperazin-1-yl)propan-1-one], the Ki in experiment [2] stood at 2300 nM. In other words, the single-digit micromolar range.
